Molecular target: estrogen receptor alpha (ESR1) (Homo sapiens, UniProt P03372)
Test: cell-based
Conditions: for ER-alpha MCF7 HCS Sinf: MCF7 breast cancer cells, 4 hours, plateau of the maximal effect, DMSO and Fulvestrant define 0% and 100% changes in ESR1
Experimental: Where more than one name is associated with a Formula I compound or intermediate, the chemical structure shall define the compound.
Cell plates were incubated at 37° C., for 4 hours. Fixation and permeabilization were carried out using a Biotek EL406 plate washer and dispenser as follows. […] Samples were incubated 30 minutes. Well contents was aspirated and 50 ul/well of Phosphate Buffered Saline (PBS) containing 0.5% w/v bovine serum albumen, 0.5% v/v Triton X-100 (Antibody Dilution Buffer) was added to each well. Samples were incubated for 30 minutes. Well contents were aspirated and washed 3 times with 100 ul/well of PBS. Immunofluorescence staining of estrogen receptor alpha (ESR1) was carried out using a Biotek EL406 plate washer and dispenser as follows. […] Samples were incubated for 2 hours at room temperature. Samples were washed 4 times with 100 ul/well of PBS. […] Samples were incubated for 2 hours at room temperature. Samples were washed 3 times with 100 ul/well of PBS using a Biotek EL406. Quantitative fluorescence imaging of ESR1 was carried out using a Cellomics Arrayscan V (Thermo). […] Channel 1 (DNA stain) was used to define the nuclear region (Circ). […] Data analysis was carried out using Genedata Screener Software, with DMSO and 5 nM Fulvestrant treated samples being used to define the 0% and 100% changes in ESR1. The “Robust Fit” method was used to define the inflexion point of curve (EC50) and the plateau of the maximal effect (Sin f).

Chain of estrogen receptor alpha (ESR1) (P03372 whole entry): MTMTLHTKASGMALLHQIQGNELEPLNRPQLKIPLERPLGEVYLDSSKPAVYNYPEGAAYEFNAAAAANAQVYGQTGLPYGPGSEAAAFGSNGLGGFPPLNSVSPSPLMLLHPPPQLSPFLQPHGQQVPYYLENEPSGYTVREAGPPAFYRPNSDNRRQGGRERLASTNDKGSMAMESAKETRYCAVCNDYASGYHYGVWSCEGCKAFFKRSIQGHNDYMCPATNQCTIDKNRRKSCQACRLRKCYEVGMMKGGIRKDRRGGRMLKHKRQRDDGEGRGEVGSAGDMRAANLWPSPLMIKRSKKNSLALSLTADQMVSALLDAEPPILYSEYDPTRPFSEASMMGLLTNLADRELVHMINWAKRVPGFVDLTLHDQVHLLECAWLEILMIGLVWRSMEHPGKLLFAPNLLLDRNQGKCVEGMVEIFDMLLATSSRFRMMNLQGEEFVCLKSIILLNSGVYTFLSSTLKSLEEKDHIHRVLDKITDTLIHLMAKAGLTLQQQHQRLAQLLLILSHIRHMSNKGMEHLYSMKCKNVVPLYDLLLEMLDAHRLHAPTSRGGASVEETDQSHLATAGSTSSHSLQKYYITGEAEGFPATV

Structure (SMILES) | EC50 [nM] | ER-alpha MCF7 HCS Sinf [%]
Cc1c(-c2ccc(O)cc2)n(Cc2ccc(OCCN3CC(CF)C3)cc2)c2ccccc12 [Example 5, 4-(1-(4-(2-(3-(Fluoromethyl)azetidin-1-yl)ethoxy)benzyl)-3-methyl-1H-indol-2-yl)phenol] | 65 | −93
Oc1ccc2c(c1)CC[C@H](c1ccccc1)[C@@H]2c1ccc(OCCN2CC(CF)C2)cc1 (racemic) [Example 34, cis-5-(4-(2-(3-(Fluoromethyl)azetidin-1-yl)ethoxy)phenyl)-6-phenyl-5,6,7,8-tetrahydronaphthalen-2-ol] | 0.016 | −99.3
Oc1ccc2c(c1)O[C@H](c1ccc(OCCN3CC(CF)C3)cc1)C1=C2CCOc2ccc(O)cc21 [Example 77, (R)-8-(4-(2-(3-(fluoromethyl)azetidin-1-yl)ethoxy)phenyl)-2,8-dihydro-1H-benzo[2,3]oxepino[4,5-c]chromene-6,11-diol] | 9.59 | −84.5
CC/C(=C(\c1ccccc1)c1ccc(OCCN2CC(CF)C2)cc1)c1ccccc1 [Example 21, (Z)-1-(2-(4-(1,2-Diphenylbut-1-en-1-yl)phenoxy)ethyl)-3-(fluoromethyl)azetidine] | 11 | −97
CC/C(=C(\c1ccccc1)c1ccc(OC[C@H](C)N2CC[C@@H](CF)C2)cc1)c1ccccc1 [Example 20, (R)-1-((S)-1-(4-((Z)-1,2-Diphenylbut-1-en-1-yl)phenoxy)propan-2-yl)-3-(fluoromethyl)pyrrolidine] | 24 | −73
C[C@@H](COc1ccc([C@@H]2Oc3ccc(O)cc3S[C@@H]2c2ccc(O)cc2)cc1)N1CC[C@@H](CF)C1 (mixture of isomers) [Example 30, 2-(4-((S)-2-((R)-3-(Fluoromethyl)pyrrolidin-1-yl)propoxy)phenyl)-3-(4-hydroxyphenyl)-2,3-dihydrobenzo[b][1,4]oxathiin-6-ol] | 1.1 | −99
Cc1c(-c2ccc(O)cc2)n(Cc2ccc(OCCN3CC(CF)C3)cc2)c2ccc(O)c(F)c12 [Example 48, 4-fluoro-1-[[4-[2-[3-(fluoromethyl)azetidin-1-yl]ethoxy]phenyl]methyl]-2-(4-hydroxyphenyl)-3-methyl-indol-5-ol] | 0.662 | −92.8
C[C@@H](COc1ccc(Oc2c(-c3ccc(S(C)(=O)=O)cc3)ccc3cc(O)ccc23)cc1)N1CC[C@@H](CF)C1 [Example 66, 5-[4-[(2S)-2-[(3R)-3-(fluoromethyl)pyrrolidin-1-yl]propoxy]phenoxy]-6-(4-methylsulfonylphenyl) naphthalen-2-ol] | 0.006 | −93.4
Oc1cccc([C@H]2Sc3c(ccc(O)c3F)O[C@H]2c2ccc(OCCN3CC(CF)C3)cc2)c1 [Example 58, (2S,3R)-5-fluoro-2-(4-(2-(3-(fluoromethyl)azetidin-1-yl)ethoxy)phenyl)-3-(3-hydroxyphenyl)-2,3-dihydrobenzo[b][1,4]oxathiin-6-ol] | 0.026 | −99.8
Oc1ccc2c(c1)O[C@@H](c1ccc(OCCN3CC(CF)C3)cc1)C1=C2CCOc2ccc(O)cc21 [Example 78, (S)-8-(4-(2-(3-(fluoromethyl)azetidin-1-yl)ethoxy)phenyl)-2,8-dihydro-1H-benzo[2,3]oxepino[4,5-c]chromene-6,11-diol] | 0.611 | −90.0
O=C(c1ccc(OCCN2CC(CF)C2)c(F)c1)c1c(-c2ccccc2Cl)noc1-c1ccc(O)cc1 [Example 17, [3-(2-Chloro-phenyl)-5-(4-hydroxy-phenyl)-isoxazol-4-yl]-{3-fluoro-4-[2-(3-fluoromethyl-azetidin-1-yl)-ethoxy]-phenyl}-methanone] | 0.3 | −102
O=C(c1ccc(OCCN2CC(CF)C2)cc1)c1c(-c2ccccc2)sc2cc(O)ccc12 [Example 39, (4-(2-(3-(fluoromethyl)azetidin-1-yl)ethoxy)phenyl)(6-hydroxy-2-phenylbenzo[b]thiophen-3-yl)methanone] | 1.6 | −96
Cc1c(-c2ccc(O)c(F)c2)n(Cc2ccc(OCCN3CC[C@@H](CF)C3)cc2)c2ccc(O)cc12 [Example 44, 2-(3-fluoro-4-hydroxy-phenyl)-1-[[4-[2-[(3R)-3-(fluoromethyl)pyrrolidin-1-yl]ethoxy]phenyl]methyl]-3-methyl-indol-5-ol] | 0.0278 | −98.1
O=C(c1ccc(OCCN2CC(CF)C2)cc1)c1c(-c2ccc(O)cc2)sc2cc(O)ccc12 [Example 9, (4-(2-(3-(fluoromethyl)azetidin-1-yl)ethoxy)phenyl)(6-hydroxy-2-(4-hydroxyphenyl)benzo[b]thiophen-3-yl)methanone] | 1.1 | −97
Oc1ccc([C@H]2Sc3cc(O)ccc3O[C@H]2c2ccc(OCCN3CC[C@@H](CF)C3)cc2)cc1 (racemic) [Example 28, 2-(4-(2-((R)-3-(Fluoromethyl)pyrrolidin-1-yl)ethoxy)phenyl)-3-(4-hydroxyphenyl)-2,3-dihydrobenzo[b][1,4]oxathiin-6-ol] | 1 | −97
CS(=O)(=O)c1ccc(-c2ccc3cc(O)ccc3c2C(=O)c2ccc(OCCN3CC[C@@H](CF)C3)cc2)cc1 [Example 67, [4-[2-[(3R)-3-(fluoromethyl)pyrrolidin-1-yl]ethoxy]phenyl]-[6-hydroxy-2-(4-methylsulfonylphenyl)-1-naphthyl]methanone] | 0.414 | −97.6
Cc1c(-c2ccc(O)c(F)c2)n(Cc2ccc(OC[C@H](C)N3CC[C@@H](CF)C3)cc2)c2ccc(O)cc12 [Example 45, 2-(3-fluoro-4-hydroxy-phenyl)-1-[[4-[(2S)-2-[(3R)-3-(fluoromethyl)pyrrolidin-1-yl]propoxy]phenyl]methyl]-3-methyl-indol-5-ol] | 0.00632 | −97.5
Cc1c(-c2ccc(F)cc2)n(Cc2ccc(OCCN3CC(CF)C3)cc2)c2ccc(O)cc12 [Example 3, 1-(4-(2-(3-(Fluoromethyl)azetidin-1-yl)ethoxy)benzyl)-2-(4-fluorophenyl)-3-methyl-1H-indol-5-ol] | 5.5 | −92
CCN(Cc1ccc(OCCN2CC(CF)C2)cc1)c1cc(OC)ccc1C1CCc2cc(O)ccc2C1 (stereo not drawn) [Example 13, 6-(2-(Ethyl(4-(2-(3-(fluoromethyl)azetidin-1-yl)ethoxy)benzyl)amino)-4-methoxyphenyl)-5,6,7,8-tetrahydronaphthalen-2-ol] | 7.5 | −55
Cc1cc(O)ccc1-c1c(C)c2cc(O)ccc2n1Cc1ccc(OCCN2CC(CF)C2)cc1 [Example 57, 1-[[4-[2-[3-(fluoromethyl)azetidin-1-yl]ethoxy]phenyl]methyl]-2-(4-hydroxy-2-methyl-phenyl)-3-methyl-indol-5-ol] | 0.0469 | −93.4
Cn1c(-c2ccc(O)cc2)c(C(=O)c2ccc(OCCN3CC(CF)C3)cc2)c2ccc(O)cc21 [Example 6, (4-(2-(3-(Fluoromethyl)azetidin-1-yl)ethoxy)phenyl)(6-hydroxy-2-(4-hydroxyphenyl)-1-methyl-1H-indol-3-yl)methanone] | 550 | −50

— patent US9845291B2, “Estrogen receptor modulators and uses thereof” (Genentech, Inc., priority 2014, dated 2017)
